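Five concentrations, 48 hours, 96-well plates. GI50 = concentration required for 50% inhibition of growth.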 Calls of active or inactive are those of the source. Rule as the data show it: active = GI50 up to about 1.1 µM and inactive = higher. Non-standard residues stand in square brackets, D forms with d. Residues, ends and D or L forms follow the SMILES beside them. ξ: configuration not given here. Pentanoyl(2-O,4-OH,5-Cl) = O=C(O)C(O)CC(O)CCl; Ile(3ξ) = CCC(C)[C@H](N)C(=O)O; NMeV = CN[C@H](C(=O)O)C(C)C; NMeA = CN[C@@H](C)C(=O)O; βAla = NCCC(=O)O
Columns and labels:
Test in all cases: growth of human tumour cells (NCI), 48 h
[1] = tested on: RPMI-8226
[2] = tested on: SN12C
[3] = tested on: K562
[4] = tested on: LOX IMVI
[5] = tested on: NCI-H460
[6] = tested on: SNB-75
[7] = tested on: SNB-19
[8] = tested on: TK-10
[9] = tested on: PC-3
[10] = tested on: HOP-92
[11] = tested on: HCT-116
[12] = tested on: MDA-MB-435
[13] = tested on: SR
[14] = tested on: NCI/ADR-RES
[15] = tested on: NCI-H522
[16] = tested on: RXF 393
[17] = tested on: SK-MEL-5
[18] = tested on: KM-20L2

| SMILES | GI50 [1] | GI50 [2] | GI50 [3] | GI50 [4] | GI50 [5] | GI50 [6] | GI50 [7] | GI50 [8] | GI50 [9] | GI50 [10] | GI50 [11] | GI50 [12] | GI50 [13] | GI50 [14] | GI50 [15] | GI50 [16] | GI50 [17] | GI50 [18] |
| --- | --- | --- | --- | --- | --- | --- | --- | --- | --- | --- | --- | --- | --- | --- | --- | --- | --- | --- |
| Oc1c(Br)ccc2cccnc12 | 2.79 µM (inactive) | 4.73 µM (inactive) | 1.06 µM (active) | 0.895 µM (active) | 1.6 µM (inactive) | 10.4 µM (inactive) | 5.06 µM (inactive) | 5.04 µM (inactive) | 3.33 µM (inactive) | 4.09 µM (inactive) | 2.05 µM (inactive) | 7.5 µM (inactive) | 0.944 µM (active) | 1 µM (active) | 0.959 µM (active) | 2.88 µM (inactive) | 2.38 µM (inactive) |  |
| CC(C(=O)NCCNC(=O)CCCC(=O)N(C)O)C(=O)NCCNC(=O)CCCC(=O)N(C)O | > 100 µM (inactive) |  | > 100 µM (inactive) | > 100 µM (inactive) | > 100 µM (inactive) | > 100 µM (inactive) | > 100 µM (inactive) | > 100 µM (inactive) | > 100 µM (inactive) | > 100 µM (inactive) |  | > 100 µM (inactive) | > 100 µM (inactive) | > 100 µM (inactive) | > 100 µM (inactive) | > 100 µM (inactive) | > 100 µM (inactive) |  |
| O=[N+]([O-])c1cccc2nccc(NCC(O)CO)c12 (centres undefined) | 12.7 µM (inactive) | 16 µM (inactive) | 20.2 µM (inactive) | 21.7 µM (inactive) | 8.18 µM (inactive) | 22.8 µM (inactive) |  | 18 µM (inactive) | 16.5 µM (inactive) | 20.6 µM (inactive) | 13.4 µM (inactive) | 16.6 µM (inactive) | 5.06 µM (inactive) | 25.5 µM (inactive) | 7.01 µM (inactive) | 11.6 µM (inactive) | 13.1 µM (inactive) |  |
| CCCCN(C(=O)c1ccccc1)C1CCC(=O)c2[nH]c3ccccc3c21 (centres undefined) | 19.4 µM (inactive) | 57.1 µM (inactive) | 49.7 µM (inactive) | 43.1 µM (inactive) | 35.4 µM (inactive) | 0.481 µM (active) | 43.6 µM (inactive) | 37.5 µM (inactive) | 20.7 µM (inactive) | 22.1 µM (inactive) | 24.7 µM (inactive) | 23.1 µM (inactive) | 11.2 µM (inactive) | 30.8 µM (inactive) | 38.7 µM (inactive) | 25.8 µM (inactive) | 18.7 µM (inactive) |  |
| CCC(C)[C@@H]1NC(=O)[C@@H]2CCCN2C(=O)C(CC(O)CCl)OC(=O)CCNC(=O)[C@H](C)N(C)C(=O)[C@H](C(C)C)N(C)C1=O (some centres undefined) (cyclo([Ile(3ξ)][NMeV][NMeA][βAla][Pentanoyl(2-O,4-OH,5-Cl)]P)) | 0.247 µM (active) | > 100 µM (inactive) | > 45.1 µM (inactive) |  | > 31.4 µM (inactive) | 2.92 µM (inactive) | > 100 µM (inactive) | > 100 µM (inactive) | 74.6 µM (inactive) | 1.09 µM (active) | 13.9 µM (inactive) | > 100 µM (inactive) | 0.361 µM (active) | > 100 µM (inactive) | 2.36 µM (inactive) | > 100 µM (inactive) | 0.248 µM (active) |  |
| CC(C)(C)C1=C(Br)C(Br)(C(C)(C)C)OP1(=O)c1ccccc1 (centres undefined) |  | > 100 µM (inactive) | > 100 µM (inactive) | > 100 µM (inactive) | > 100 µM (inactive) | > 100 µM (inactive) | > 100 µM (inactive) | > 100 µM (inactive) | > 100 µM (inactive) | > 100 µM (inactive) | > 100 µM (inactive) | > 100 µM (inactive) | > 100 µM (inactive) | > 100 µM (inactive) | > 100 µM (inactive) | > 100 µM (inactive) | > 100 µM (inactive) |  |
| Nc1ccc(N(S(=O)(=O)c2ccccc2)S(=O)(=O)c2ccccc2)c(Cl)c1 | 28.7 µM (inactive) | 75.9 µM (inactive) | 2.98 µM (inactive) | 68.1 µM (inactive) | 34.8 µM (inactive) | 42.2 µM (inactive) | > 100 µM (inactive) | 55.1 µM (inactive) | 35.6 µM (inactive) | 70.3 µM (inactive) | 55.2 µM (inactive) | 15.1 µM (inactive) | 57.3 µM (inactive) | 40.2 µM (inactive) | 33.9 µM (inactive) | > 100 µM (inactive) | 20.1 µM (inactive) |  |
| CN(C)c1ccc(C2CC(=O)CC(c3ccc(N(C)C)cc3)C23C(=O)NC(=O)NC3=O)cc1 (centres undefined) | > 25 µM (inactive) | > 25 µM (inactive) | 0.025 µM (active) | > 25 µM (inactive) | > 25 µM (inactive) | 9.79 µM (inactive) | 9.14 µM (inactive) | > 25 µM (inactive) | > 25 µM (inactive) | 5.18 µM (inactive) | > 25 µM (inactive) | > 25 µM (inactive) | > 25 µM (inactive) | > 25 µM (inactive) | 17.6 µM (inactive) | 15.8 µM (inactive) | > 25 µM (inactive) |  |
| CSc1ncnc2c1ncn2CCC#N | > 100 µM (inactive) | > 100 µM (inactive) | > 100 µM (inactive) | > 100 µM (inactive) | > 100 µM (inactive) | > 100 µM (inactive) | > 100 µM (inactive) | > 100 µM (inactive) | > 100 µM (inactive) | > 100 µM (inactive) | > 100 µM (inactive) | > 100 µM (inactive) | > 100 µM (inactive) | > 100 µM (inactive) | > 100 µM (inactive) | > 100 µM (inactive) | > 100 µM (inactive) |  |
| CC1=NN(C(=O)c2ccccc2O)C(=O)/C1=C/c1c(O)ccc2ccccc12 | 1.46 µM (inactive) | 1.22 µM (inactive) | 1.73 µM (inactive) | 0.625 µM (active) | 0.676 µM (active) | 2.42 µM (inactive) | 3.26 µM (inactive) | 8.87 µM (inactive) | 2.03 µM (inactive) | 1.96 µM (inactive) | 0.689 µM (active) | 4.94 µM (inactive) | 0.364 µM (active) | 1.34 µM (inactive) | 0.839 µM (active) | 0.787 µM (active) | 1.19 µM (inactive) | 4.59 µM (inactive) |
| O=C/C(=C1/C=Cc2cc([N+](=O)[O-])ccc2S1)c1ccccc1 | > 100 µM (inactive) | > 100 µM (inactive) | > 100 µM (inactive) | > 100 µM (inactive) | > 100 µM (inactive) | 25.1 µM (inactive) | > 100 µM (inactive) | > 100 µM (inactive) | > 100 µM (inactive) | > 100 µM (inactive) | > 100 µM (inactive) | > 100 µM (inactive) | > 100 µM (inactive) | > 100 µM (inactive) | > 100 µM (inactive) | > 100 µM (inactive) | > 100 µM (inactive) |  |
| CCC(=O)NC(NNS(=O)(=O)c1ccc(C)cc1)(C(F)(F)F)C(F)(F)F | 54.3 µM (inactive) |  | 30.6 µM (inactive) | > 100 µM (inactive) | 33.5 µM (inactive) | 51.9 µM (inactive) | > 100 µM (inactive) | 54.1 µM (inactive) | 55.1 µM (inactive) | 37.6 µM (inactive) | 64.3 µM (inactive) | 18.7 µM (inactive) | 39.4 µM (inactive) | 27.3 µM (inactive) | 30.7 µM (inactive) | 23.2 µM (inactive) | 50 µM (inactive) |  |

— ChEMBL document CHEMBL1201862, “PubChem BioAssay data set” (2004)
